Test results taken from US9023836B2, “Use of substituted heterocyclic compounds to control sea lice on fish” (Novartis Tiergesundheit AG, priority 2010, dated 2015).
≈ marks a conversion by molar mass, not a printed value.

Key:
[1] = test system: Lepeophtheirus salmonis copepodids; assay: Activity in vitro against Lepeophtheirus salmonis at copepodid stage; conditions: 1 hour contact in sea water, then 48 h in untreated sea water, no movement over 80 seconds, read-out: efficacy (EC80)
Procedure: Activity in Vitro Against Lepeophtheirus Salmonis at Copepodid Stage Sea lice copepodids were used to seed a 96-well plate containing the test substances to be evaluated for antiparasitic activity. Each compound was tested by serial dilution in order to determine its minimal effective dose (MED). Copepodids were left in contact with the test compound diluted in sea water for 1 hour. They were then incubated in untreated sea water for 48 h. Efficacy against sea lice was then confirmed if no copepodid moved over a period of 80 seconds.

[2] = test system: Lepeophtheirus salmonis adult lice; assay: In vitro activity against Lepeophtheirus salmonis at adult stage; conditions: at 1 ppm; 60 minutes exposure, survival at 24 hours post exposure, 12° C.
Procedure: In Vitro Activity of Compound 8 Against Lepeophtheirus Salmonis at Adult Stage
Ten mixed sex adult lice (non gravid, Lepeophtheirus salmonis) were removed from fish and exposed to a test compound at several dilution in filtered sea water and placed in an incubator at 12° C. in dark conditions. After 60 minutes exposure, lice were rinsed in clean sea water and transferred to petri dishes containing 100 mL of sea water. They were then returned to the incubator. Lice were examined for survival at 24 hours post exposure (moribund lice considered as dead)

[3] = test system: Lepeophtheirus salmonis on Atlantic salmon; assay: In vivo activity against Lepeophtheirus salmonis on Atlantic salmon using injectable application
Procedure: In Vivo Activity of Compound 8 Against Lepeophtheirus Salmonis on Atlantic Salmon using Injectable Application
Twenty Atlantic salmon (mean weights at about 100 g) were anaesthetized with 2-phenoxy ethanol, individually weighed and injected with 0.2 ml of compound 8 formulated in PEG300 at 2.5%, corresponding to a 50 mg/kg dose. Each treatment was administered by single IP injection and fish were then transferred to a flow through tank, the temperature of which was maintained between 6 and 14° C. Louse infection was by exposure of experimental fish to louse copepodids freshly hatched from Lepeophtheirus salmonis egg strings. The number of copepodids used was selected to provide a settlement rate of at least 10 lice per fish. Sea louse numbers were assessed when they had developed to chalimus stage III/IV or later on if needed.
(§1) Ten fish per group were anaesthetized with 2 phenoxy-ethanol and examined for louse settlement under a dissecting microscope. Differences in sea louse counts between each test group and the relevant control group (non treated) infested at the same time as the test group were assessed using Mann-Whitney Tests. Efficacy was calculated using the formula: % Efficacy=100−(100×mean of treatment group/mean of control).

[4] = test system: Lepeophtheirus salmonis on Atlantic salmon; assay: In vivo activity against Lepeophtheirus salmonis on Atlantic salmon using bath treatment application; conditions: bath 2 ppm in salt water, 60 minutes
Procedure: In Vivo Activity of Compound 8 Against Lepeophtheirus Salmonis on Atlantic Salmon using Bath Treatment Application Bath containing compound 8 at 2 ppm in salt water was prepared by dilution of a solution of compound 8 in DMSO. Fish (Atlantic salmons) had been previously infected with 2 cohorts of lice to ensure the presence of chalimus and motile lice at the time of treatment. This test was performed on thirty fish per group and was compared to 30 control fish that were bathed in sea water containing DMSO only (at an inclusion rate equal to that used in the test group using the most DMSO as solvent), for 60 minutes. The fish were then transferred to holding tanks and sampled for lice numbers at 3 and 10 days post treatment. Ten fish per group were anaesthetized with 2 phenoxy-ethanol and examined for louse settlement under a dissecting microscope. Differences in sea louse counts between each test group and the relevant control group (non treated) infested at the same time as the test group were assessed using Mann-Whitney Tests. Efficacy was calculated using the formula: % Efficacy=100−(100×mean of treatment group/mean of control).

[5] = test system: Lepeophtheirus salmonis on Atlantic salmon; assay: In vivo activity against Lepeophtheirus salmonis on Atlantic salmon using in-feed application; conditions: medicated pellets 9.8 mg/kg/day, 7 consecutive days
Procedure: In Vivo Activity of Compound 8 Against Lepeophtheirus Salmonis on Atlantic Salmon using In-Feed Application
Compound 8 was administered orally via medicated fish pellets at an average dose of 9.8 mg/kg/day during 7 consecutive days to 50 Atlantic salmon infected with lice (Lepeophtheirus salmonis). The medicated pellets were prepared by dry top coating of the compound 8, formulated as feed additive as described above, and over-oiling to seal (1% fish oil). Fish had been previously infected by exposure to louse. The number of copepodids used was selected to provide an settlement rate of at least 10 lice per fish. Treatment was done when lice had developed to pre-adult II and adult stages. Sea louse numbers were assessed 34 days post treatment. A second challenge using louse copepodids took place at 41 days post treatment. Sea louse numbers were assessed when they had developed to adults.
as §1, with “All” for “Ten”, “fish” for “fish per group”

[6] = 50 mg/kg IP, 14 days post treatment, Chalimus III
[7] = 50 mg/kg IP, 41 days post treatment, Chalimus III
[8] = 50 mg/kg IP, 83 days post treatment, Chal III/IV
[9] = 50 mg/kg IP, 127 days post treatment, Chal III/IV
[10] = 50 mg/kg IP, 169 days post treatment, Chal III/IV
[11] = 50 mg/kg IP, 217 days post treatment, Adults
[12] = 50 mg/kg IP, 217 days post treatment, Chal III/IV
[13] = 50 mg/kg IP, 217 days post treatment, PAI & PAII
[14] = 50 mg/kg IP, 252 days post treatment, Chal IV/PAI

CCCC(=O)NCc1ccc(C2=NOC(c3cc(Cl)cc(Cl)c3)(C(F)(F)F)C2)cc1C (centres unmarked) [Example 25]
EC80 [1]: 0.05 µg/mL (≈ 0.106 µM)

CCC(=O)NCc1ccc(C2=NOC(c3cc(Cl)cc(Cl)c3)(C(F)(F)F)C2)cc1C (centres unmarked) [Example 17]
EC80 [1]: 0.05 µg/mL (≈ 0.109 µM)

CSCC(=O)NCc1ccc(C2=NOC(c3cc(Cl)cc(Cl)c3)(C(F)(F)F)C2)cc1C (centres unmarked) [Example 28]
EC80 [1]: 0.05 µg/mL (≈ 0.102 µM)

Cc1cc(C2=NOC(c3cc(Cl)cc(Cl)c3)(C(F)(F)F)C2)ccc1CNC(=O)CC1(C)OCCO1 (centres unmarked) [Example 26]
EC80 [1]: 0.05 µg/mL (≈ 0.0941 µM)

CON/C=N\C(=O)c1ccc(C2=NOC(c3cc(Cl)cc(Cl)c3)(C(F)(F)F)C2)c2ccccc12 (centres unmarked) [Example 13]
EC80 [1]: 0.05 µg/mL (≈ 0.098 µM)

CC(=O)NCc1ccc(C2=NOC(c3cc(Cl)cc(Cl)c3)(C(F)(F)F)C2)cc1C (centres unmarked) [Example 29]
EC80 [1]: 0.05 µg/mL (≈ 0.112 µM)

O=C(CNC(=O)c1ccc(C2=NOC(c3cc(Cl)cc(Cl)c3)(C(F)(F)F)C2)c2ccccc12)NCC(F)(F)F (centres unmarked) [Example 11]
EC80 [1]: 0.05 µg/mL (≈ 0.0844 µM)

COCCC(=O)NCc1ccc(C2=NOC(c3cc(Cl)cc(Cl)c3)(C(F)(F)F)C2)cc1C (centres unmarked) [Example 18]
EC80 [1]: 0.05 µg/mL (≈ 0.102 µM)

CON/C=N/C(=O)c1ccc(C2=NOC(c3cc(Cl)cc(Cl)c3)(C(F)(F)F)C2)cc1C (centres unmarked) [Example 16]
EC80 [1]: 0.05 µg/mL (≈ 0.105 µM)

Cc1cc(C2=NOC(c3cc(Cl)cc(Cl)c3)(C(F)(F)F)C2)ccc1C(=O)NCC(F)(F)F (centres unmarked) [Example 3]
EC80 [1]: 0.05 µg/mL (≈ 0.1 µM)

Cc1cc(C2=NOC(c3cc(Cl)cc(Cl)c3)(C(F)(F)F)C2)ccc1CNC(=O)C1CC1 (centres unmarked) [Example 24]
EC80 [1]: 0.05 µg/mL (≈ 0.106 µM)

Cc1cc(C2=NOC(c3cc(Cl)cc(Cl)c3)(C(F)(F)F)C2)ccc1CNC(=O)CC(C)C (centres unmarked) [Example 31]
EC80 [1]: 0.05 µg/mL (≈ 0.103 µM)

Cc1cc(C2=NOC(c3cc(Cl)cc(Cl)c3)(C(F)(F)F)C2)ccc1C(=O)NCC(=O)NCC(F)(F)F (centres unmarked) [Example 14]
EC80 [1]: 0.05 µg/mL (≈ 0.0899 µM)

Cc1cc(C2=NOC(c3cc(Cl)cc(Cl)c3)(C(F)(F)F)C2)ccc1C(=O)NCc1ccccn1 (centres unmarked) [Example 2]
EC80 [1]: 0.05 µg/mL (≈ 0.0984 µM)

CN(C)/C=N/C(=O)c1ccc(C2=NOC(c3cc(Cl)cc(Cl)c3)(C(F)(F)F)C2)c2ccccc12 (centres unmarked) [Example 12]
EC80 [1]: 0.05 µg/mL (≈ 0.0984 µM)

COC(=O)CNC(=O)c1ccc(C2=NOC(c3cc(Cl)cc(Cl)c3)(C(F)(F)F)C2)c2ccccc12 (centres unmarked) [Example 10]
EC80 [1]: 0.05 µg/mL (≈ 0.0952 µM)

Cc1cc(C2=NOC(c3cc(Cl)cc(Cl)c3)(C(F)(F)F)C2)ccc1CNC(=O)CCC#N (centres unmarked) [Example 33]
EC80 [1]: 0.05 µg/mL (≈ 0.103 µM)

O=C(NCC(F)(F)F)c1ccc(C2=NOC(c3cc(Cl)cc(Cl)c3)(C(F)(F)F)C2)c2ccccc12 (centres unmarked) [Example 8]
EC80 [1]: 0.05 µg/mL (≈ 0.0934 µM)
Efficacy [2]: more than 90%
Efficacy [3, 6]: 99.5%
Mean lice count of treated fish ± s.d. [3, 6]: 0.1 ± 0.3
Efficacy [3, 7]: 100%
Mean lice count of treated fish ± s.d. [3, 7]: 0.0 ± 0.0
Efficacy [3, 8]: 100%
Mean lice count of treated fish ± s.d. [3, 8]: 0.0 ± 0.0
Efficacy [3, 9]: 100%
Mean lice count of treated fish ± s.d. [3, 9]: 0.0 ± 0.0
Efficacy [3, 10]: 100%
Mean lice count of treated fish ± s.d. [3, 10]: 0.0 ± 0.0
Efficacy [3, 11]: 97.3%
Mean lice count of treated fish ± s.d. [3, 11]: 0.5 ± 1.0
Efficacy [3, 12]: 74.3%
Mean lice count of treated fish ± s.d. [3, 12]: 22.9 ± 27.7
Efficacy [3, 13]: 94.6%
Mean lice count of treated fish ± s.d. [3, 13]: 4.5 ± 5.8
Efficacy ([3]; 50 mg/kg IP, 252 days post treatment, Adults): 84.9%
Efficacy [3, 14]: 29.8%
Mean lice count of treated fish ± s.d. [3, 14]: 21.4 ± 15.5
Efficacy ([3]; single IP injection 50 mg/kg in PEG300, for up to 7 months post treatment): more than 90%
effective against adult sea lice ([4]; 3 days post treatment): 100%
effective against developing chalimus stage ([4]; by 10 days post treatment): 96%
efficacy as a curative treatment (first challenge) ([5]; lice assessed 34 days post treatment): 100%
efficacy on the challenge performed 41 days post treatment ([5]; second challenge with copepodids, assessed at adult stage): 100%

O=C(NCc1ccccn1)c1ccc(C2=NOC(c3cc(Cl)cc(Cl)c3)(C(F)(F)F)C2)c2ccccc12 (centres unmarked) [Example 7]
EC80 [1]: 0.05 µg/mL (≈ 0.0919 µM)

Cc1cc(C2=NOC(c3cc(Cl)cc(Cl)c3)(C(F)(F)F)C2)ccc1CNC(=O)C1CCC1 (centres unmarked) [Example 30]
EC80 [1]: 0.05 µg/mL (≈ 0.103 µM)

Cc1cc(C2=NOC(c3cc(Cl)cc(Cl)c3)(C(F)(F)F)C2)ccc1-n1cncn1 (centres unmarked) [Example 1]
EC80 [1]: 0.05 µg/mL (≈ 0.113 µM)

N#Cc1cc(C2=NOC(c3cc(Cl)cc(Cl)c3)(C(F)(F)F)C2)ccc1-n1cncn1 (centres unmarked) [Example 6]
EC80 [1]: 0.05 µg/mL (≈ 0.111 µM)
